This passage reports IC50 results from patent publication US9139581B2 (PORTOLA PHARMACEUTICALS, INC., priority 2008, dated 2015).

One experiment deals with T1, full length active recombinant SYK enzyme (Homo sapiens, UniProt P43405).
T1 construct: full length active recombinant SYK enzyme (Millipore, Calif.); purchased Millipore
As to the kind of experiment: Inhibition of Syk tyrosine phosphorylation activity (LANCE TR-FRET). It counts as biochemical. Particulars: Table 3; 1 nM SYK, 100 μM ATP; read-out: Syk IC50 code. Here is the method: The in vitro and in vivo human syk activities of the inventive compounds can be determined by various procedures known in the art, such as a test for their ability to inhibit the activity of human plasma syk. […] Inhibition of Syk Tyrosine Phosphorylation Activity Potency of candidate molecules for inhibiting syk tyrosine phosphorylation activity is assessed by measuring the ability of a test compound to inhibit syk-mediated tyrosine phosphorylation of a syk-specific substrate. SYK tyrosine phosphorylation activity is measured using the LANCETM Technology developed by Perkin Elmer Life and Analytical Sciences (Boston, Mass.). LANCETM refers to homogeneous time resolved fluorometry applications using techniques such as time-resolved fluorescence resonance energy transfer assay (TR-FRET) (see generally for procedures in Perkin Elmer Application Note-How to Optimize a Tyrosine Kinase Assay Using Time Resolved Fluorescence-Based LANCE Detection, wwww.perkinelmer.com/lifesciences). The assay principle involves detection of a phosphorylated substrate using energy transfer from a phosphospecific europium-labeled antibody to streptavidin-allophycocyanin as an acceptor. To test the ability of candidate molecules to inhibit SYK tyrosine phosphorylation activity, molecules are reconstituted in 30% DMSO and serially diluted 1:3 with the final dilution containing DMSO in the absence of the candidate molecule. The final DMSO concentration in the assay is 3%. Kinase assays are performed as a two part reaction. The first reaction is a kinase reaction and which comprises of a candidate molecule, full length active recombinant SYK enzyme (Millipore, Calif.) and biotin-labeled SYK-specific substrate biotin-[…]-OH. The second reaction involves termination of the kinase reaction and the simultaneous addition of the detection reagents-europium-labeled anti-phosphotyrosine reagent (Eu-W1024-PY100, Perkin Elmer, Boston, Mass.) and Streptavidin-Allophycocyanin detection reagent (SA-APC, Prozyme, Calif.). The kinase reaction is performed in a black U-bottom 96-well microtitre plate. […] The reaction is allowed to proceed for 1 hour at room temperature. […] The detection reagents are added to the reaction mixture at the following dilutions-1:500 for Eu-W1024-PY100 and 1:250 for SA-APC. The kinase reaction is terminated by the addition of 50 μL quench buffer containing the detection reagents. The detection is allowed to proceed for 1 hr at room temperature. Detection of the phosphorlated substrate in the absence and presence of inhibitors is measured in the TR-FRET instrument, Analyst HT ([…], Sunnyvale, Calif.) and the condition for measurements are set up using CriterionHost Release 2.0 ([…], Sunnyvale, Calif.). […] IC50s were derived by non-linear regression analysis.
For orientation: TR-FRET usually uses a lanthanide donor and a delayed reading to cut background.
For orientation: IC50 means the concentration at which inhibition is half-maximal. For `N[C@H]1CC[C@@H](Nc2nc(Nc3ccc4c(c3)CCC(=O)N4)ncc2F)CC1` [Example 140, 6-(4-((1s,4s)-4-aminocyclohexylamino)-5-fluoropyrimidin-2-ylamino)-3,4-dihydroquinolin-2(1H)-one], the IC50 was in the range of 100 to 1000 nM.

Consider `CS(=O)(=O)Cc1cccc(Nc2nc(NC3CCC3)c3cc[nH]c3n2)c1` [Example 77], for which the IC50 was 100 to 1000 nM. Turning to `CN1C(=O)CCc2cc(Nc3nc(NCc4ccccc4)c4c(-c5ccncc5)c[nH]c4n3)ccc21` [Example 114, 6-(4-(benzylamino)-5-(pyridin-4-yl)-7H-pyrrolo[2,3-d]pyrimidin-2-ylamino)-1-methyl-3,4-dihydroquinolin-2(1H)-one], the IC50 was 100 to 1000 nM.

As to `N[C@H]1CC[C@@H](Nc2nc(Nc3ccc4c(c3)CCC(=O)N4)ncc2C2CC2)CC1` [Example 144, 6-(4-((1s,4s)-4-aminocyclohexylamino)-5-cyclopropylpyrimidin-2-ylamino)-3,4-dihydroquinolin-2(1H)-one], the IC50 is 10 to 100 nM. Consider `CNc1nc(Nc2ccc3cn[nH]c3c2)nc2[nH]cc(-c3ccncc3)c12` [Example 1, N2-(1H-indazol-6-yl)-N4-methyl-5-(pyridin-4-yl)-7H-pyrrolo[2,3-d]pyrimidine-2,4-diamine], for which the half-maximal inhibitory concentration (IC50) was 10 to 100 nM. On the same count and under the same terms, the result for `CC(=O)N1CCN(c2ccc(Nc3nc(N[C@@H](C)CO)c4cc[nH]c4n3)cc2)CC1` [Example 99A, (S)-1-(4-(4-(4-(1-hydroxypropan-2-ylamino)-7H-pyrrolo[2,3-d]pyrimidin-2-ylamino)phenyl)piperazin-1-yl)ethanone] reads 100 to 1000 nM; that for `CN(C)CC(=O)N(C)c1ccc(Nc2nc(NC3CCC3)c3cc[nH]c3n2)cc1` [Example 84, N-(4-(4-(cyclobutylamino)-7H-pyrrolo[2,3-d]pyrimidin-2-ylamino)phenyl)-2-(dimethlamino)-N-methylacetamide], 100 to 1000 nM. In the case of `CCOC(=O)CN1C(=O)CCc2cc(Nc3nc(NC4CCC4)c4cc[nH]c4n3)ccc21` [Example 69, Ethyl 2-(6-(4-(cyclobutyamino)-7H-pyrrolo-[2,3-d]pyrimidine-2-ylamino)-2-oxo-3,4-dihydroquinolin-1(2H)-yl)acetate], the IC50 is 10 to 100 nM.

As to `CC(=O)N1CCN(c2ccc(Nc3ncc(F)c(N4CCC(NC(=O)OCc5ccccc5)CC4)n3)cc2)CC1` [Example 127, Benzyl 1-(2-(4-(4-acetylpiperazin-1-yl)phenylamino)-5-fluoropyrimidin-4-yl)piperidin-4-ylcarbamate], the IC50 is over 1000 nM. Still for that read-out and setting: the same measure for `NS(=O)(=O)c1cccc(Nc2nc(Nc3ccc(N4CCNCC4)cc3)nc3[nH]ccc23)c1` [Example 96B, 3-(2-(4-(piperazin-1-yl)phenylamino)-7H-pyrrolo[2,3-d]pyrimidin-4-ylamino)benzenesulfonamide]: 10 to 100 nM; for `OC1CCN(c2ccc(Nc3nc(NC4CCC4)c4cc[nH]c4n3)cc2)CC1` [Example 56, 1-(4-(4-(cyclobutylamino)-7H-pyrrolo[2,3-d]pyrimidin-2-ylamino)phenyl)piperidin-4-ol]: 10 to 100 nM.

Staying with this experiment, now noted: Table 4; 1 nM SYK, 100 μM ATP; read-out: syk IC50.
Take `CC(C)(C)OC(=O)NCC1CCCCN1c1nc(Nc2ccc3cn[nH]c3c2)ncc1F` (centres unmarked) [Example 35, tert-butyl (1-(2-(1H-indazol-6-ylamino)-5-fluoropyrimidin-4-yl)piperidin-2-yl)methylcarbamate]: the IC50 was over 1000 nM. In the case of `CC(=O)N1CCN(c2ccc(Nc3nc(N4CC[C@H](O)C4)c4cc[nH]c4n3)cc2)CC1` [Example 13, (S)-1-(4-(4-(4-(3-hydroxypyrrolidin-1-yl)-7H-pyrrolo[2,3-d]pyrimidin-2-ylamino)phenyl)piperazin-1-yl)ethanone], the IC50 is over 1000 nM. Consider `CC(=O)N1CCN(c2ccc(Nc3nc(N4CCC(C(N)=O)CC4)c4cc[nH]c4n3)cc2)CC1` [Example 24, 1-(2-(4-(4-acetylpiperazin-1-yl)phenylamino)-7H-pyrrolo[2,3-d]pyrimidin-4-yl)piperidine-4-carboxamide], for which the IC50 fell in the range of 100 to 1000 nM.
